Reference: ChEMBL document CHEMBL4627321, “Enantioselective synthesis of tetrahydrocarbazoles via trienamine catalysis and their anxiolytic-like activity” (Bioorg Med Chem Lett, 2020)
The source made the active and inactive calls. The rule behind the calls is not given here.

How the values were obtained:
[1] = system: Mus musculus; assay: Anxiolytic activity in BALB/c mouse assessed as reduction in anxiety like behaviour administered orally 1 hr prior to experiment by cylinder exploratory test; type: functional; conditions: for ED50: po
[2] = system: Mus musculus; assay: Anxiolytic activity in BALB/c mouse at 25 mg/kg, po administered 1 hr prior to experiment by cylinder exploratory test relative to control; type: functional
[3] = Effect on locomotor activity in BALB/c mouse assessed as reduction in time spent in rotarod at <25 mg/kg, po by rotarod test; type: ADME, organism-based; conditions: in vivo
[4] = system: Mus musculus; assay: Anxiolytic activity in BALB/c mouse at 3.3 mg/kg, po after 5 mins in presence of GABAA receptor antagonist 0.7 mg/kg bicuculline by cylinder exploratory test; type: functional, organism-based
[5] = system: Mus musculus; assay: Anxiolytic activity in BALB/c mouse at 3.3 mg/kg, po after 5 mins in presence of 1 mg/kg ketanserin by cylinder exploratory test; type: functional, organism-based
[6] = system: Mus musculus; assay: Anxiolytic activity in BALB/c mouse at 3.3 mg/kg, po after 5 mins in presence of 1 mg/kg yohimbine by cylinder exploratory test; type: functional, organism-based
[7] = Effect on locomotor activity in BALB/c mouse assessed as reduction in time spent in rotarod at 100 mg/kg, po measured after 1 hr post treatment by rotarod test; type: ADME, organism-based; conditions: in vivo
[8] = system: Mus musculus; assay: Anxiolytic activity in BALB/c mouse at 7.7 mg/kg, po after 5 mins in presence of GABAA receptor antagonist 0.7 mg/kg bicuculline by cylinder exploratory test; type: functional, organism-based
[9] = system: Mus musculus; assay: Anxiolytic activity in BALB/c mouse at 7.7 mg/kg, po after 5 mins in presence of 1 mg/kg ketanserin by cylinder exploratory test; type: functional, organism-based
[10] = system: Mus musculus; assay: Anxiolytic activity in BALB/c mouse at 7.7 mg/kg, po after 5 mins in presence of 1 mg/kg yohimbine by cylinder exploratory test; type: functional, organism-based

SMILES	Activity [1]	ED50 [1] [mg/kg]	Activity [2] [%]	Activity [3]	Activity [4]	Activity [5]	Activity [6]	Activity [7]	Activity [8]	Activity [9]	Activity [10]
CCOC(=O)[C@]1(C#N)[C@@H](c2ccccc2)Cc2c(c3ccccc3n2C(=O)OC(C)(C)C)[C@@H]1CC=O	Dose-dependent effect	3.3	72	Non-Toxic	inactive	Active	Active				
CCOC(=O)[C@]1(C#N)[C@@H](c2ccccc2)Cc2c(c3ccccc3n2Cc2ccccc2)[C@@H]1CC=O	Dose-dependent effect	7.7	83.4	Non-Toxic				Toxic	inactive	Active	Active
